Assay results taken from patent US5639904A, “1-aryloxy-3-alkylamino-2-propanol nitrate esters, the use thereof and corresponding pharmaceutical composition” (Prodesfarma, S.A., priority 1993, dated 1997).
Where two headings read alike, the source gives them in different places.

Experiments:
Type in all cases: cell-based
[1] = system: helical strips of swine coronary artery (potassium-induced contraction); experiment: In vitro coronary vasodilator activity: antagonism of contractions induced by potassium (35 mM); details: Sus scrofa; for IC50: read-out: inhibitory concentration 50 (IC50), effect on K+-induced contractions in swine coronary artery; for inhibition at 100 µM: read-out: inhibition of K+-induced contractions in swine coronary artery
Experimental: (§1) The coronary vasodilator activity of the synthesized products was determined in vitro from their capacity to antagonize the contractions induced by a) potassium (35 mM) b) calcium (1.5 mM) and c) serotonin (1 mM) in helical strips of swine coronary artery, using Nitroglycerine and Nicorandil as reference drugs (Table 1).

[2] = target: T1, β1-adrenergic (isolated guinea pig left auricle) (Cavia porcellus, UniProt H0W3H1); experiment: In vitro β1-adrenergic blocking activity: antagonism of isoprenaline-induced positive inotropic response in electrically stimulated isolated left auricle
T1 construct: electrically stimulated isolated left auricle of the guinea pig; from tissue; host or cells: isolated left auricle of guinea pig
Excerpt: In parallel tests, the effect of the said compounds on the positive isoprenaline-induced inotropic response in electrically stimulated isolated left auricle of the guinea pig, as evidence of β1 -adrenergic blocking activity (Table 2) was established.
BLOCKING ACTIVITY IN VITRO

[3] = system: helical strips of swine coronary artery (serotonin-induced contraction); experiment: In vitro coronary vasodilator activity: antagonism of contractions induced by serotonin (1 mM); details: Sus scrofa; for IC50: read-out: inhibitory concentration 50 (IC50), effect on serotonin-induced contractions in swine coronary artery
Experimental: as §1

[4] = system: helical strips of swine coronary artery (calcium-induced contraction); experiment: In vitro coronary vasodilator activity: antagonism of contractions induced by calcium (1.5 mM); details: Sus scrofa; for IC50: read-out: inhibitory concentration 50 (IC50), effect on Ca2+-induced contractions in swine coronary artery
Experimental: as §1

[5] = electrically stimulated isolated guinea pig left auricle, read-out: inhibitory concentration 50 (IC50), antagonism of isoprenaline-induced positive inotropic response

T1 sequence (H0W3H1 1-470): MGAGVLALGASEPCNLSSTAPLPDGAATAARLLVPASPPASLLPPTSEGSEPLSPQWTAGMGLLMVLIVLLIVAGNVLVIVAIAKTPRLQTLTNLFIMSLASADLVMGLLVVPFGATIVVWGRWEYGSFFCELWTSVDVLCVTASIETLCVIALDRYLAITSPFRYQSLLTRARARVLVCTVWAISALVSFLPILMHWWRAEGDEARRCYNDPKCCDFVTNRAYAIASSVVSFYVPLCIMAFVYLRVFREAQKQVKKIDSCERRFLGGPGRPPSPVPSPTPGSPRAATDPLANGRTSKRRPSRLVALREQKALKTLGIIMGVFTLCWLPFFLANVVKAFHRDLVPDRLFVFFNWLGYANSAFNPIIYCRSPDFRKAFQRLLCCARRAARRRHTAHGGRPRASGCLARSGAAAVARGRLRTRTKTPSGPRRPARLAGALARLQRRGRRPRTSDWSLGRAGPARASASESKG

Row | SMILES | IC50 ([1]; potassium 35 mM) | IC50 [2, 5] | IC50 ([3]; serotonin 1 mM) | also measured
1 | CC(C)NCC(O)COc1c(CC(=O)NCCO[N+](=O)[O-])ccc2ccccc12 (stereo not drawn) [1-(2-hydroxy-3-isopropylamino)propoxy-N-(2-nitroxyethyl)-2-naphthalene acetamide] | 40.7 µM |  |  | 
2 | CC(C)NCC(O)COc1ccc(COCC(CO[N+](=O)[O-])O[N+](=O)[O-])cc1 (stereo not drawn) [1-isopropylamino-3-[4-(2,3-dinitroxy)-propoxymethyl]phenoxy-2-propanol] |  |  |  | IC50 [2]: 4.8 µM; IC50 [3]: 1.6 µM; IC50 [1]: 0.5 µM; IC50 [4]: 1.7 µM
3 | CC(C)NCC(O)COc1ccc(COCCO[N+](=O)[O-])cc1 (stereo not drawn) [1-isopropylamino-3-[4-(2-nitroxy)ethoxymethyl]phenoxy-2-propanol] | 3.4 µM | 0.6 µM | 13.3 µM | 
4 | CC(C)NCC(O)COc1ccc(COCCCO[N+](=O)[O-])cc1 (stereo not drawn) [1-isopropylamino-3-[4-(3-nitroxy)propoxymethyl]phenoxy-2-propanol] | 7.1 µM | 0.7 µM | 6 µM | inhibition at 30 µM ([4]; at 30 μM, calcium 1.5 mM, read-out: inhibition of Ca2+-induced contractions in swine coronary artery): 50%
5 | CC(C)NCC(O)COc1ccc2ccccc2c1CC(=O)NCCO[N+](=O)[O-] (stereo not drawn) [2-(2-hydroxy-3-isopropylamino)propoxy-N-(2-nitroxyethyl)-1-naphthalene acetamide] | 28.6 µM |  |  | inhibition at 100 µM ([2]; at 0.1 mM, electrically stimulated isolated guinea pig left auricle): 25%; inhibition at 100 µM ([3]; serotonin 1 mM): 50%; inhibition at 10 µM ([4]; at 10 μM, calcium 1.5 mM, read-out: inhibition of Ca2+-induced contractions in swine coronary artery): 20%
6 | CC(C)NCC(O)COc1ccc(CC(=O)OCCO[N+](=O)[O-])cc1 (stereo not drawn) [2-nitroxyethyl 4-[(2-hydroxy-3-isopropylamino)propoxy]phenyl acetate] | 0.3 µM | 7.6 µM | 5.7 µM | IC50 ([4]; calcium 1.5 mM): 13.1 µM
7 | CC(C)NCC(O)COc1ccc(CC(N)=O)cc1 (stereo not drawn) [Atenolol, reference compound] |  |  |  | IC50 [2]: 0.7 µM; inhibition at 100 µM [1]: 25%
8 | COCCc1ccc(OCC(O)CNC(C)C)cc1 (stereo not drawn) [Metoprolol, reference compound] |  |  |  | inhibition at 100 µM ([3]; serotonin 1 mM): 20%; inhibition at 100 µM ([1]; at 0.1 mM, potassium 35 mM): 30%
9 | O=C(NCCO[N+](=O)[O-])c1cccnc1 [Nicorandil, reference compound] | 49.7 µM |  | 14.7 µM | IC50 ([4]; calcium 1.5 mM): 169 µM
10 | O=[N+]([O-])OCC(CO[N+](=O)[O-])O[N+](=O)[O-] [Nitroglycerine, reference compound] | 1.3 µM |  | 1 µM | inhibition at 100 µM ([4]; at 0.1 mM, calcium 1.5 mM, read-out: inhibition of Ca2+-induced contractions in swine coronary artery): 50%
